# Legend:
# [1] = tested on: cocklebur; experiment: Test B pre/postemergence cocklebur; assay type: in vivo, Xanthium strumarium
# Outline: (§1)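 Test chemicals in a non-phytotoxic solvent mixture with surfactant were sprayed preemergence onto planted seeds and postemergence onto plants 2 to 18 cm tall (1- to 4-leaf stage). After twelve to sixteen days in a greenhouse, injury was visually rated against untreated controls from 0 (no effect) to 10 (complete control).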
# [2] = tested on: corn; experiment: Test B pre/postemergence corn; assay type: in vivo, Zea mays
# Outline: as §1
# [3] = tested on: crabgrass; experiment: Test B pre/postemergence crabgrass; assay type: in vivo, Digitaria sanguinalis
# Outline: as §1
# [4] = tested on: giant foxtail; experiment: Test B pre/postemergence giant foxtail; assay type: in vivo, Setaria faberii
# Outline: as §1
# [5] = tested on: morningglory; experiment: Test B pre/postemergence morningglory; assay type: in vivo, Ipomoea hederacea
# Outline: as §1
# [6] = tested on: pigweed; experiment: Test B pre/postemergence pigweed; assay type: in vivo, Amaranthus retroflexus
# Outline: as §1
# [7] = tested on: rape; experiment: Test B pre/postemergence rape; assay type: in vivo, Brassica napus
# Outline: as §1
# [8] = tested on: soybean; experiment: Test B pre/postemergence soybean; assay type: in vivo, Glycine max
# Outline: as §1
# [9] = tested on: sugar beet; experiment: Test B pre/postemergence sugar beet; assay type: in vivo, Beta vulgaris
# Outline: as §1
# [10] = tested on: velvetleaf; experiment: Test B pre/postemergence velvetleaf; assay type: in vivo, Abutilon theophrasti
# Outline: as §1
# [11] = tested on: wheat; experiment: Test B pre/postemergence wheat; assay type: in vivo, Triticum aestivum
# Outline: as §1
# [12] = tested on: wild oat; experiment: Test B pre/postemergence wild oat; assay type: in vivo, Avena fatua
# Outline: as §1
# [13] = tested on: purple nutsedge; experiment: Test B pre/postemergence purple nutsedge; assay type: in vivo, Cyperus rotundus
# Outline: as §1
# [14] = tested on: rice; experiment: Test B flood test rice; assay type: in vivo, Oryza sativa
# Outline: (§2)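 Plants were grown to the 2-leaf stage before treatment with test chemical, then held in a greenhouse for twelve to sixteen days. Injury was visually rated against untreated controls on a 0–10 scale, where 0 is no effect and 10 is complete control.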
# [15] = tested on: duck salad; experiment: Test B flood test duck salad; assay type: in vivo, Heteranthera limosa
# Outline: as §2
# [16] = tested on: bamyardgrass; experiment: Test B flood test barnyardgrass; assay type: in vivo, Echinochloa crus-galli
# Outline: as §2
# [17] = Postemergence, Rate 62 g/ha, scale 0 to 10, 0 is no effect, 10 is complete control
# [18] = Postemergence, Rate 250 g/ha, scale 0 to 10, 0 no effect, 10 complete control
# [19] = Preemergence, Rate 62 g/ha, scale 0 to 10 (0 no effect, 10 complete control)
# [20] = Preemergence, Rate 125 g/ha, scale 0 to 10 (0 no effect, 10 complete control)
# [21] = Preemergence, Rate 250 g/ha, scale of 0 to 10 where 0 is no effect and 10 is complete control
# [22] = Preemergence, Rate 500 g/ha, scale 0 (no effect) to 10 (complete control)
# [23] = Rate 125 g/ha, Postemergence, scale 0 to 10, 0 no effect, 10 complete control
# [24] = Rate 500 g/ha, Postemergence, scale 0 to 10, 0 no effect, 10 complete control
# [25] = Rate 125 g/ha, Postemergence section (flood test species), scale 0 to 10, 0 no effect, 10 complete control
# [26] = Rate 500 g/ha, listed under Postemergence (flood test species), scale 0 to 10, 0 no effect, 10 complete control
# [27] = flood test, listed under Postemergence, Rate 250 g/ha, scale 0 to 10, 0 no effect, 10 complete control
smiles,measurement,setting,value
CCN(C(=O)n1oc(=O)n(-c2c(C)cc(C)cc2C)c1=O)C1CCCCC1 [Compound 63],Cocklebur plant response rating,[1]; [17],0
same,Cocklebur plant response rating,[1]; [18],0
same,Cocklebur plant response rating,[1]; [19],0
same,"Plant response rating, Cocklebur",[1]; [20],0
same,"Plant response rating, Cocklebur",[1]; [21],0
same,Cocklebur plant response rating,[1]; [22],0
same,Cocklebur plant response rating,[1]; [23],0
same,Cocklebur plant response rating,[1]; [24],0
same,Corn plant response rating,[2]; [17],0
same,Corn plant response rating,[2]; [18],2
same,Corn plant response rating,[2]; [19],0
same,"Plant response rating, Corn",[2]; [20],0
same,"Plant response rating, Corn",[2]; [21],0
same,Corn plant response rating,[2]; [22],0
same,Corn plant response rating,[2]; [23],0
same,Corn plant response rating,[2]; [24],2
same,Crabgrass plant response rating,[3]; [17],0
same,Crabgrass plant response rating,[3]; [18],0
same,Crabgrass plant response rating,[3]; [19],0
same,"Plant response rating, Crabgrass",[3]; [20],0
same,"Plant response rating, Crabgrass",[3]; [21],1
same,Crabgrass plant response rating,[3]; [22],2
same,Crabgrass plant response rating,[3]; [23],0
same,Crabgrass plant response rating,[3]; [24],2
same,Giant foxtail plant response rating,[4]; [17],0
same,Giant foxtail plant response rating,[4]; [18],0
same,Giant foxtail plant response rating,[4]; [19],0
same,"Plant response rating, Giant foxtail",[4]; [20],0
same,"Plant response rating, Giant foxtail",[4]; [21],2
same,Giant foxtail plant response rating,[4]; [22],3
same,Giant foxtail plant response rating,[4]; [23],0
same,Giant foxtail plant response rating,[4]; [24],2
same,Morningglory plant response rating,[5]; [17],0
same,Morningglory plant response rating,[5]; [18],4
same,Morningglory plant response rating,[5]; [19],0
same,"Plant response rating, Morningglory",[5]; [20],0
same,"Plant response rating, Morningglory",[5]; [21],0
same,Morningglory plant response rating,[5]; [22],0
same,Morningglory plant response rating,[5]; [23],2
same,Morningglory plant response rating,[5]; [24],4
same,Redroot pigweed plant response rating,[6]; [17],0
same,Redroot pigweed plant response rating,[6]; [18],0
same,Redroot pigweed plant response rating,[6]; [19],0
same,"Plant response rating, Redroot pigweed",[6]; [20],0
same,"Plant response rating, Redroot pigweed",[6]; [21],0
same,Redroot pigweed plant response rating,[6]; [22],0
same,Redroot pigweed plant response rating,[6]; [23],0
same,Redroot pigweed plant response rating,[6]; [24],2
same,Rape plant response rating,[7]; [17],0
same,Rape plant response rating,[7]; [18],0
same,Rape plant response rating,[7]; [19],0
same,"Plant response rating, Rape",[7]; [20],0
same,"Plant response rating, Rape",[7]; [21],0
same,Rape plant response rating,[7]; [23],0
same,Rape plant response rating,[7]; [24],0
same,Soybean plant response rating,[8]; [17],2
same,Soybean plant response rating,[8]; [18],2
same,Soybean plant response rating,[8]; [19],0
same,"Plant response rating, Soybean",[8]; [20],0
same,"Plant response rating, Soybean",[8]; [21],0
same,Soybean plant response rating,[8]; [22],0
same,Soybean plant response rating,[8]; [23],2
same,Soybean plant response rating,[8]; [24],3
same,Sugarbeets plant response rating,[9]; [17],0
same,Sugarbeets plant response rating,[9]; [18],2
same,Sugarbeets plant response rating,[9]; [19],0
same,"Plant response rating, Sugarbeets",[9]; [20],0
same,"Plant response rating, Sugarbeets",[9]; [21],0
same,Sugarbeets plant response rating,[9]; [22],0
same,Sugarbeets plant response rating,[9]; [23],0
same,Sugarbeets plant response rating,[9]; [24],3
same,Velvetleaf plant response rating,[10]; [17],3
same,Velvetleaf plant response rating,[10]; [18],5
same,Velvetleaf plant response rating,[10]; [19],0
same,"Plant response rating, Velvetleaf",[10]; [20],0
same,"Plant response rating, Velvetleaf",[10]; [21],2
same,Velvetleaf plant response rating,[10]; [22],3
same,Velvetleaf plant response rating,[10]; [23],3
same,Velvetleaf plant response rating,[10]; [24],5
same,Wheat plant response rating,[11]; [17],0
same,Wheat plant response rating,[11]; [18],0
same,Wheat plant response rating,[11]; [19],0
same,"Plant response rating, Wheat",[11]; [20],0
same,"Plant response rating, Wheat",[11]; [21],0
same,Wheat plant response rating,[11]; [22],0
same,Wheat plant response rating,[11]; [23],0
same,Wheat plant response rating,[11]; [24],2
same,Wild oats plant response rating,[12]; [17],0
same,Wild oats plant response rating,[12]; [18],0
same,Wild oats plant response rating,[12]; [19],0
same,"Plant response rating, Wild oats",[12]; [20],0
same,"Plant response rating, Wild oats",[12]; [21],0
same,Wild oats plant response rating,[12]; [22],0
same,Wild oats plant response rating,[12]; [23],0
same,Wild oats plant response rating,[12]; [24],2
same,Nutsedge plant response rating,[13]; [17],0
same,Nutsedge plant response rating,[13]; [18],2
same,Nutsedge plant response rating,[13]; [19],0
same,"Plant response rating, Nutsedge",[13]; [20],0
same,"Plant response rating, Nutsedge",[13]; [21],0
same,Nutsedge plant response rating,[13]; [22],6
same,Nutsedge plant response rating,[13]; [23],0
same,Nutsedge plant response rating,[13]; [24],2
same,Rice plant response rating,[14]; [17],0
same,Rice plant response rating,[14]; [25],0
same,Rice plant response rating,[14]; [26],0
same,Rice plant response rating,[14]; [27],0
same,Ducksalad plant response rating,[15]; [17],0
same,Ducksalad plant response rating,[15]; [25],0
same,Ducksalad plant response rating,[15]; [26],0
same,Ducksalad plant response rating,[15]; [27],0
same,Barnyardgrass plant response rating,[16]; [17],0
same,Barnyardgrass plant response rating,[16]; [25],0
same,Barnyardgrass plant response rating,[16]; [26],0
same,Barnyardgrass plant response rating,[16]; [27],0

# — patent publication US6737383B1, “Herbicidal oxadiazolidines” (priority 1999, dated 2004)
